Data: patent publication US20230405134A1, “NOVEL PROTAC CHIMERIC COMPOUND, AND PHARMACEUTICAL COMPOSITION COMPRISING SAME FOR PREVENTING, AMELIORATING, OR TREATING DISEASES THROUGH TARGET PROTEIN DEGRADATION” (POSTECH RESEARCH AND BUSINESS DEVELOPMENT FOUNDATION, priority 2020, published 2023)
Where a SMILES comes first, the peptide text is derived from it. Bridges are numbered along the chain shown (N, C = ends). [ ]: non-standard residue; d: D form. Cha = N[C@@H](CC1CCCCC1)C(=O)O; S5 = C=CCCC[C@](C)(N)C(=O)O

Columns and labels:
[1] = tested on: E-cadherin; assay: E-cadherin mRNA level by RT-qPCR in MDA-MB-231 cells; assay type: cell-based, human; conditions: 12 hours
From the text: The pharmacological effects on SRC-1 dependent signal transmission were explored using the previously discovered SRC-1 degrading substance. The SRC-1 is overexpressed in various cancers and plays a pivotal role in increasing cell migration and invasion by regulating the expression of related genes. Therefore, when treated with ND1-YL2, an SRC-1 degrading substance, the expression of genes stimulated by SRC-1, such as colony stimulating factor-1 (CSF-1), a gene encoding the cytokine CSF-1 that induces cell differentiation and migration, will be suppressed. To confirm this, MDA-MB-231 cells were treated with DMSO and various concentrations of ND1-YL2, YL2 or N-degron tetrapeptide for 12 hours, and the mRNA level of CSF-1 was normalized to 18S level. Confirmation was made using quantitative real-time polymerase chain reaction (RT-qPCR). MDA-MB-231 cells were seeded at 2×10^5 cells per well. After 24 hours, compounds (YL2, RLAA or ND1-YL2) were treated in Opti-MEM medium for 12 hours. Subsequently, general mRNA isolation was performed using TRI reagent (Takara), and total mRNA was isolated from the cells. The absorbance of total mRNA was measured with a Tecan F200 Nanophotometer, and reverse transcription was performed using AccuPower RocketScript Cycle RT PreMix (Bioneer). Quantitative real-time PCR for CSF-1, E-Cadherin and 18S was performed using a StepOnePlus Real-Time PCR System and SYBR Green mix (Applied Biosystems) according to the manufacturer's manual.
In addition, the effect of the ND1-YL2 on the expression of E-cadherin, a tumor suppressor gene that plays an important role in cell-cell adhesion, was tested. Since SRC-1 protein is known to suppress the E-cadherin expression, the ND1-YL2 will upregulate the E-cadherin by degrading SRC-1.

[2] = tested on: MDA-MB-231-RFP cells; assay: Pulmonary metastasis model in mice; assay type: in vivo, BALB/c-nude mice; conditions: cells treated with 100 μM for 12 hours, intravenously injected, flow cytometry of lungs after two weeks
Method: It was confirmed whether ND1-YL2 could inhibit cancer metastasis through mice model. MDA-MB-231-RFP cells expressing red fluorescent protein (RFP) were cultured in DMEM (Welgene) containing 10% FBS (Omega Scientific Inc.) under the conditions of 37° C. and 5% CO2. 5-week-old BALB/c-nude mice (OriententBio Inc.) were maintained in a sterile environment and had free access to food and water. All animal procedures were approved by the Organ Animal Care and Use Committee of POSTECH. For the pulmonary metastasis model, MDA-MB-231-RFP cells treated with DMSO or 100 μM of ND1-YL2 for 12 hours were intravenously injected at 10^6 cells per mouse, followed by […]. The lungs were harvested and prepared in a single cell suspension and filtered through a 100 μm cell strainer (Corning). It was further cultured for 2 minutes in ACK lysis buffer (Gibco). The samples were analyzed by LSR Fortessa (BD Biosciences). […] To visualize lung metastasis, lung sections were prepared and dyed with Haemotoxylin and Eosin (H&E) stain.

[3] = target: SRC-1 (Homo sapiens, UniProt Q15788); assay: SRC-1 expression level in MDA-MB-231 cells by Western blot; assay type: cell-based; parameters: endogenous in cells; host or cells: MDA-MB-231
[4] = target: T1, SRC-3 (Homo sapiens, UniProt Q9Y6Q9); assay: SRC-3 expression level in MDA-MB-231 cells by Western blot; assay type: cell-based; conditions: 20 μM
T1 construct: endogenous in cells; host or cells: MDA-MB-231
Method: It was confirmed whether ND1-YL2 could selectively target and degrade SRC-1 over other SRC family members. Considering the structural similarity between SRC members, it can be predicted that ND1-YL2 will be able to bind to and degrade other members of the SRC family, such as SRC-3. […] To test this, TNBC MDA-MB-231 cells were treated with ND1-YL2 and the amounts of SRC-3 and SRC-1 were confirmed at the cellular level by Western blotting (FIG. 17).

[5] = tested on: MDA-MB-231 cells; assay: Matrigel invasion assay; assay type: cell-based, human; conditions: 24 hours; ND1-YL2 various concentrations, YL2 and RLAA 20 μM
Method: The inhibition of cell migration may be due to the inhibitory effect of ND1-YL2 on cell growth. In order to exclude this possibility, the invasive ability of cells treated with ND1-YL2 was confirmed. A Corning Matrigel insert (Corning) was placed in a 24-well plate. After hydrating the Matrigel insert with an FBS-free DMEM medium for 2 hours in a CO2 incubator, MDA-MB-231 cells were cultured in the Matrigel insert (4×10^4 cells/insert) with 125 μL of Opti-MEM medium. Another 125 μl of compound containing Opti-MEM medium was added to the insert. The lower chamber was filled with 500 μL of DMEM medium containing 10% FBS. The Matrigel chamber was cultured for 24 hours under the conditions of 37° C. and 5% CO2. The cell culture media of the upper and lower chambers were removed and washed three times with cold DPBS. Non-invasive cells were then removed with a cotton swab. The bottom of the chamber was fixed with 4% formaldehyde for 10 minutes at room temperature, and stained with Hoechst 33342 (5 μg/mL) for 5 minutes in a CO2 incubator. After washed with DPBS, images of infiltrated cells were obtained by a fluorescence microscope. The percentage of the invasive cells was calculated using the product manual. MDA-MB-231 cells were treated with various concentrations of ND1-YL2, N-degron (20 μM) or YL2 (20 μM). After 24 hours, images of the invaded cells were obtained by a fluorescence microscope, and the number of invaded cells was quantified through the images. […] The inhibitory activity of ND1-YL2 on cell migration and invasion is in good agreement with previous SRC-1 knockdown experiments.

[6] = tested on: HEK293T; assay: Cell viability assay; assay type: cell-based; conditions: various concentrations, 48 hours
Method: To further confirm the above results, an MTT cell viability assay was performed. MDA-MB-231 (1×10^4 cells/well), HEK293T (1×10^4 cells/well) and Colo205 (2×10^4 cells/well) cells were seeded in a 96-well plate, and cultured under the conditions of 37° C. and 5% carbon dioxide. After 24 hours, the cells were washed twice with DPBS and treated with DMSO or various concentrations of ND1-YL2 in Opti-MEM medium for 48 hours. Cell viability was measured by the Cyto X cell viability assay kit (LPS solution) according to the manufacturer's instructions.

SRC-1, sequence (Q15788 whole entry): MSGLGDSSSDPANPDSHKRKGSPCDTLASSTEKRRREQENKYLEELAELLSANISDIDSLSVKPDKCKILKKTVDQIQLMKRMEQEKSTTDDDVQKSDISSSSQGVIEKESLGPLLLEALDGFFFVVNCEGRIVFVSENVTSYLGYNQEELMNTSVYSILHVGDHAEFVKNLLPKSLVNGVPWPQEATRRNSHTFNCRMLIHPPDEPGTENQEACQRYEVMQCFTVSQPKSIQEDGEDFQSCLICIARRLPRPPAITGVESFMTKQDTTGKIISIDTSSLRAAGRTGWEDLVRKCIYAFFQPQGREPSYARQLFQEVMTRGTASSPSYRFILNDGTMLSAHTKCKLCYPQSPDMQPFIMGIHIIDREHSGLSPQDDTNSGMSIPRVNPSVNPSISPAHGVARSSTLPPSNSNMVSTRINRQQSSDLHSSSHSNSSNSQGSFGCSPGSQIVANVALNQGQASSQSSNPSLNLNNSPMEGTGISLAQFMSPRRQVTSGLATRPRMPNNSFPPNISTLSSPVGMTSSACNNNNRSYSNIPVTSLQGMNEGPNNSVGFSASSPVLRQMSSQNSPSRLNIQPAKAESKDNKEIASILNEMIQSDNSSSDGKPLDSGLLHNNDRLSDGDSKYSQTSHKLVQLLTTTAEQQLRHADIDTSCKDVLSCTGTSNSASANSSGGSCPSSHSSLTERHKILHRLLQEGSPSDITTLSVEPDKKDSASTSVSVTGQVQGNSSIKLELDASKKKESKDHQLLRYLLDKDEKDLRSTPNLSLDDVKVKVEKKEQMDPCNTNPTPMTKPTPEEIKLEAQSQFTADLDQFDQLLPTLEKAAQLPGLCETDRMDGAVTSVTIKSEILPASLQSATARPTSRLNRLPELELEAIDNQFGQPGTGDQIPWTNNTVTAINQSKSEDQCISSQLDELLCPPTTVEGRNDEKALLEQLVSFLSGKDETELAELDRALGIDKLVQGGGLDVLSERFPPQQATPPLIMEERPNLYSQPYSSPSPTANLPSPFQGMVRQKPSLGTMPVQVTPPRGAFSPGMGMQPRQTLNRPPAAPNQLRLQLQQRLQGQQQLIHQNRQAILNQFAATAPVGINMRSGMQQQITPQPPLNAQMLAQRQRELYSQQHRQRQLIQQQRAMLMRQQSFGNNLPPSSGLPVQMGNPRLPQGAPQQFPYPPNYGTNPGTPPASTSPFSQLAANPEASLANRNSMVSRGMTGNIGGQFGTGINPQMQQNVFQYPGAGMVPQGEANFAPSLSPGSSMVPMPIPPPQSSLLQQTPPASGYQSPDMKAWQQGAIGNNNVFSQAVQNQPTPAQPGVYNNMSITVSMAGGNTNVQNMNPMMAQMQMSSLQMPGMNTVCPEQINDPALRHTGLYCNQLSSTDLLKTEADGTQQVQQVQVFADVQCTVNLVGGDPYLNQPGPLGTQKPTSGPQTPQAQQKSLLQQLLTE
T1 sequence (Q9Y6Q9 whole entry): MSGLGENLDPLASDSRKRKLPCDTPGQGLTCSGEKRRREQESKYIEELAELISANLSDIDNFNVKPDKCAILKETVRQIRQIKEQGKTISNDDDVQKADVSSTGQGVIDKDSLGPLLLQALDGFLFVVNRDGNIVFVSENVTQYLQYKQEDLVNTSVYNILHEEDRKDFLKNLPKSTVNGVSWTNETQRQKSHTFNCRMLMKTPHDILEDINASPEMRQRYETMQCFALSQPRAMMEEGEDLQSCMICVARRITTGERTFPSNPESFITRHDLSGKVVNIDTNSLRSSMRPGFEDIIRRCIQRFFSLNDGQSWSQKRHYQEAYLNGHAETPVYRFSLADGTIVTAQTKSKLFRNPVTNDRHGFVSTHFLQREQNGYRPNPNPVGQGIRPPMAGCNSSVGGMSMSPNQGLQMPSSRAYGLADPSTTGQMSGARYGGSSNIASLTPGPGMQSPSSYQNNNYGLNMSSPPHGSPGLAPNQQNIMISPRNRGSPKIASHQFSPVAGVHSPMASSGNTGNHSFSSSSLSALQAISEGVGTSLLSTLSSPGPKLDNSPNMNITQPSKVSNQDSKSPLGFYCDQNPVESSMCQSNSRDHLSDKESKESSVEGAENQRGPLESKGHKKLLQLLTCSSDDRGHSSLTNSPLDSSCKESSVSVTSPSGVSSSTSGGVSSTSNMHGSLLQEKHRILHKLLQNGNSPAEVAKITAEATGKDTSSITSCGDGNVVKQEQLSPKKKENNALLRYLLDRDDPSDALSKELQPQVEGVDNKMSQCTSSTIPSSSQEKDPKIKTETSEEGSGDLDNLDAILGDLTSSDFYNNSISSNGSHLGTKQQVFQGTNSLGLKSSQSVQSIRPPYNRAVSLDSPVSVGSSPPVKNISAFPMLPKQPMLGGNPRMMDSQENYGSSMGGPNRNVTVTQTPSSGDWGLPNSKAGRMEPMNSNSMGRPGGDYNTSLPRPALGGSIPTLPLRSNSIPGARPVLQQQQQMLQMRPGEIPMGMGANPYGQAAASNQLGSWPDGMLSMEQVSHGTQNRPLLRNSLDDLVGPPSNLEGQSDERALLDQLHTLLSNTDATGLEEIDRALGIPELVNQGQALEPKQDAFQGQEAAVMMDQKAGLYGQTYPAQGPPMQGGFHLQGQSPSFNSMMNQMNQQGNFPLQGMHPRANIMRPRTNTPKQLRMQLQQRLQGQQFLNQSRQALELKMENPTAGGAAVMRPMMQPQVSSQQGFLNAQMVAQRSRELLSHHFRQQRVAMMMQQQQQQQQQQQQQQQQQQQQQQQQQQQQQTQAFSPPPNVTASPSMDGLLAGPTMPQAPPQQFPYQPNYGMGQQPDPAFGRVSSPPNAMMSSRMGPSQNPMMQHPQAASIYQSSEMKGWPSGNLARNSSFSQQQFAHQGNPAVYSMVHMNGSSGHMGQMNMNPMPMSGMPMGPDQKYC

Q: Which results are given for `CC(C)C[C@H](NC(=O)[C@H](C)NC(=O)[C@H](C)NC(=O)[C@H](C)NC(=O)[C@H](C)NC(=O)[C@H](CC(C)C)NC(=O)[C@@H](N)CCCNC(=N)N)C(=O)N[C@@H](CC(C)C)C(=O)N1CCC[C@H]1C(=O)N1CCC[C@H]1C(=O)N[C@H](C(=O)N[C@@H](CCC(=O)O)C(=O)N[C@@H](CCC(N)=O)C(=O)N[C@@H](CC(=O)O)C(=O)N[C@@H](CC(C)C)C(=O)N[C@@]1(C)CCC/C=C\CCC[C@@](C)(C(=O)N[C@@H](Cc2ccc(O)cc2)C(N)=O)NC(=O)[C@H](CC2CCCCC2)NC(=O)[C@H](CC(C)C)NC(=O)[C@H](CCCCN)NC1=O)[C@@H](C)O` [ND1-YL2] (H-RLAAAALLPPTEQDL[S5]KL[Cha][S5]Y-NH2; staple (Z) 16-20)?
A: Effect on E-cadherin expression (mRNA) [1]: dose-dependent increase; Reduction of infiltrated MDA-MB-231-RFP cells in lungs compared to vehicle samples [2]: 40%; Selective degradation of SRC-1 over SRC-3 ([3]; 20 μM): selectively degraded only SRC-1; Time after treatment at which SRC-1 degradation was evident ([3]; 20 μM): 8 h; Time for which SRC-1 degradation was maintained without detectable recovery ([3]; 20 μM): 24 h; SRC-1 degradation, single agents compared ([3]; 20 μM, 12 hours): degradation of SRC-1 appeared only in ND1-YL2; Time to restoration of SRC-1 expression to the original level after removal of compound ([3]; 20 μM, after washing): ≤ 12 h; SRC-1 degradation ([3]; various concentrations, Western blot): strongest activity among the synthesized and treated compounds; DC50 ([3]; various concentrations, Western blot, read-out: DC50 for reduction of SRC-1 expression level): ~10 µM; SRC-1 degradation when treated together with MG-132 ([3]; with proteasome inhibitor MG-132 (5 μM), 12 hours): did not show the effect of degrading SRC-1; Degradation effect on SRC-3 [4]: no degradation effect was observed; Effect on cell invasion [5]: cell invasion decreased as the treatment concentration of ND1-YL2 increased; Effect on cell survival [6]: did not significantly affect the survival
